# Target: T1, chicken gizzard smooth muscle myosin subfragment-1 chemically crosslinked to cardiac or skeletal actin (Gallus gallus, UniProt P10587)
# T1 construct: chicken gizzard smooth muscle myosin subfragment-1; from tissue; host or cells: chicken gizzard
# Assay: Smooth muscle myosin ATPase dose response assay (pyruvate kinase/horseradish peroxidase/pyruvate oxidase-coupled, amplex red fluorescence)
# Type: biochemical
# Settings: read-out: IC50 Arithmetic Mean
# Outline: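 ATPase monitored by amplex red fluorescence (ex 480/em 615 nm) via pyruvate oxidase/HRP coupling, pH 7.00, ATP 0.15 mM. Enzyme: smooth muscle S1-actin crosslinked conjugate, amount set empirically by titration. Dose-response fitted with 4-parameter Hill equation for IC50.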
# T1 sequence (P02607 2-151): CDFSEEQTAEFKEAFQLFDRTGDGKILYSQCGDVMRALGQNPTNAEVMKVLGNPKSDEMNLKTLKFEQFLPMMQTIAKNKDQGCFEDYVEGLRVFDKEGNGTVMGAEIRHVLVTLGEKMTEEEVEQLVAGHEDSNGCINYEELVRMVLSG
# T1 sequence (P10587 84-789): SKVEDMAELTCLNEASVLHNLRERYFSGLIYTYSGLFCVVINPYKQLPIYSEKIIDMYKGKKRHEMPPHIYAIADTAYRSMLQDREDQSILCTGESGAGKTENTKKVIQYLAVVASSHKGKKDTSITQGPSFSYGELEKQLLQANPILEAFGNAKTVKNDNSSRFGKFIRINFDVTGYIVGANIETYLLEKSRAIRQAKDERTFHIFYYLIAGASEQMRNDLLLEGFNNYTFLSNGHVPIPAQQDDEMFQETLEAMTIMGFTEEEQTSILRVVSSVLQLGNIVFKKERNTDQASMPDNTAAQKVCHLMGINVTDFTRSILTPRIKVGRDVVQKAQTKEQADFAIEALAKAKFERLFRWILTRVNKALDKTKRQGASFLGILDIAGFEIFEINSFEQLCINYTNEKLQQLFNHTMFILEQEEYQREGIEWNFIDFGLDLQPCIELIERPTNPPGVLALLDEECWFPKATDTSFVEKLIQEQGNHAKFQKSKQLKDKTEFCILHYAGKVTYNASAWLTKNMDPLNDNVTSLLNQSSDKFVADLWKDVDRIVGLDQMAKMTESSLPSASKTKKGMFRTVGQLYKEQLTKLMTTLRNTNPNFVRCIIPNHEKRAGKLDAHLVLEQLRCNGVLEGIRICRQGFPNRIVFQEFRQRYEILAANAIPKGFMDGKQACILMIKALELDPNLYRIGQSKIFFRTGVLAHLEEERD
row,IC50 [µM],Compound
1,0.026,N#Cc1ccccc1-c1ccc(C(=O)NCc2ccc(N)nc2)c(NCCc2cccc(F)c2)n1 [N-[(6-amino(3-pyridyl))methyl](6-(2-cyanophenyl)-2-{[2-(3-fluorophenyl)ethyl]amino}(3-pyridyl))carboxamide]
2,2.13,COC(=O)N1CCC(CNC(=O)c2ccc(-c3ccccc3C#N)nc2NCCc2cccc(F)c2)CC1 [methyl 4-{[(6-(2-cyanophenyl)-2-{[2-(3-fluorophenyl)ethyl]amino}-3-pyridyl)carbonylamino]methyl}piperidinecarboxylate]
3,10.5,CC1CN(C(=O)c2cc(F)c(-c3cnn(C)c3)nc2NCCc2cccc(F)c2)C1 [5-fluoro-2-{[2-(3-fluorophenyl)ethyl]amino}-6-(1-methylpyrazol-4-yl)(3-pyridyl) 3-methylazetidinyl ketone]
4,32.2,Cn1cnc(CCNc2nc(-c3ccccc3)ccc2C(=O)NCc2cccnc2)c1 [(2-{[2-(1-methylimidazol-4-yl)ethyl]amino}-6-phenyl(3-pyridyl))-N-(3-pyridylmethyl)carboxamide]
5,1.97,O=C(NCc1cccnc1)c1ccc(-c2cccc(Cl)c2)nc1NCCc1ccccn1 [{6-(3-chlorophenyl)-2-[(2-(2-pyridyl)ethyl)amino](3-pyridyl)}-N-(3-pyridylmethyl)carboxamide]
6,28.1,COC(=O)c1cccc(CCNc2nc(-c3ccccc3)ccc2C(=O)NCc2cccnc2)c1 [methyl 3-[2-({6-phenyl-3-[N-(3-pyridylmethyl)carbamoyl]-2-pyridyl}amino)ethyl]benzoate]
7,0.624,N#Cc1cc(C(=O)NC[C@H]2CCCN2)c(NCCc2cccc(F)c2)nc1-c1cn[nH]c1 [N-[((2R)pyrrolidin-2-yl)methyl](5-cyano-2-{[2-(3-fluorophenyl)ethyl]amino}-6-pyrazol-4-yl(3-pyridyl))carboxamide]
8,0.056,N#Cc1ccccc1-c1ccc(C(=O)NCc2ccncc2CN)c(NCCc2cccc(F)c2)n1 [N-{[3-(aminomethyl)(4-pyridyl)]methyl}(6-(2-cyanophenyl)-2-{[2-(3-fluorophenyl)ethyl]amino}(3-pyridyl))carboxamide]
9,15.8,N#Cc1ccccc1-c1ccc(C(=O)NCC2(CCN=[N+]=[N-])CCCNC2=O)c(NCCc2cccc(F)c2)n1 (stereo not drawn) [(6-(2-cyanophenyl)-2-{[2-(3-fluorophenyl)ethyl]amino}(3-pyridyl))-N-{[3-(3-diazo-3-azaprop-3-enyl)-2-oxo(3-piperidyl)]methyl}carboxamide]
10,0.092,O=C(NCc1cc[nH]n1)c1ccc(-c2cc[nH]n2)nc1NCCc1cccc(F)c1 [(2-{[2-(3-fluorophenyl)ethyl]amino}-6-pyrazol-3-yl(3-pyridyl))-N-(pyrazol-3-ylmethyl)carboxamide]
11,2.5,N#Cc1ccccc1-c1ccc(C(=O)NCC2CCCCCN2)c(NCCc2cccc(F)c2)n1 (stereo not drawn) [N-(azaperhydroepin-2-ylmethyl)(6-(2-cyanophenyl)-2-{[2-(3-fluorophenyl)ethyl]amino}(3-pyridyl))carboxamide]
12,36.7,O=C(NCc1cccnc1)c1ccc(-c2ccccc2)nc1NCCc1ccc(O)cc1 [(2-{[2-(4-hydroxyphenyl)ethyl]amino}-6-phenyl(3-pyridyl))-N-(3-pyridylmethyl)carboxamide]
13,0.944,CN[C@@H](C)CNC(=O)c1ccc(-c2ccccc2C#N)nc1NCCc1cccc(F)c1 [N-[(2S)-2-(methylamino)propyl](6-(2-cyanophenyl)-2-{[2-(3-fluorophenyl)ethyl]amino}(3-pyridyl))carboxamide]
14,24.3,Cc1ccc(CNC(=O)c2ccc(-c3ccccc3C#N)nc2NCCc2cccc(F)c2)cc1 [(6-(2-cyanophenyl)-2-{[2-(3-fluorophenyl)ethyl]amino}(3-pyridyl))-N-[(4-methylphenyl)methyl]carboxamide]
15,0.031,Cn1cc(-c2ccc(C(=O)NCc3cc[nH]n3)c(NCCc3cccc(F)c3)n2)cn1 [(2-{[2-(3-fluorophenyl)ethyl]amino}-6-(1-methylpyrazol-4-yl)(3-pyridyl))-N-(pyrazol-3-ylmethyl)carboxamide]
16,0.291,N#Cc1ccccc1-c1ccc(C(=O)NCCc2ccccn2)c(NCCc2cccc(F)c2)n1 [(6-(2-cyanophenyl)-2-{[2-(3-fluorophenyl)ethyl]amino}(3-pyridyl))-N-(2-(2-pyridyl)ethyl)carboxamide]
17,0.02,Cn1ncc(-c2ccc(C(=O)NCc3cccnc3)c(NCCc3cccc(F)c3)n2)c1C#N [(6-(5-cyano-1-methylpyrazol-4-yl)-2-{[2-(3-fluorophenyl)ethyl]amino}(3-pyridyl))-N-(3-pyridylmethyl)carboxamide]
18,0.03,Cn1cc(-c2nc(NCCc3cccc(F)c3)c(C(=O)NCc3cccnc3CN)cc2Cl)cn1 [N-{[2-(aminomethyl)(3-pyridyl)]methyl}(5-chloro-2-{[2-(3-fluorophenyl)ethyl]amino}-6-(1-methylpyrazol-4-yl)(3-pyridyl))carboxamide]

row,IC50 [µM],Compound
1,0.117,CC[C@H](CNC(=O)c1cc(F)c(-c2cn[nH]c2)nc1NCCc1cccc(F)c1)C(=O)OC [methyl (2R)-2-{[(5-fluoro-2-{[2-(3-fluorophenyl)ethyl]amino}-6-pyrazol-4-yl(3-pyridyl))carbonylamino]methyl}butanoate]
2,0.973,O=C1CNCC(CNC(=O)c2ccc(-c3cn[nH]c3)nc2NCCc2cccc(F)c2)N1 (stereo not drawn) [(2-{[2-(3-fluorophenyl)ethyl]amino}-6-pyrazol-4-yl(3-pyridyl))-N-[(6-oxopiperazin-2-yl)methyl]carboxamide]
3,0.525,Cn1cc(-c2nc(NCCc3cccc(F)c3)c(C(=O)NC[C@H]3CCN3C(=O)OC(C)(C)C)cc2F)cn1 [tert-butyl (2R)-2-{[(5-fluoro-2-{[2-(3-fluorophenyl)ethyl]amino}-6-(1-methylpyrazol-4-yl)(3-pyridyl))carbonylamino]methyl}azetidinecarboxylate]
4,0.577,Cc1cc(C(=O)NC[C@H]2CCC(=O)N2CCCN)c(NCCc2cccc(F)c2)nc1-c1cnn(C)c1 [N-{[(2R)-1-(3-aminopropyl)-5-oxopyrrolidin-2-yl]methyl}(2-{[2-(3-fluorophenyl)ethyl]amino}-5-methyl-6-(1-methylpyrazol-4-yl)(3-pyridyl))carboxamide]
5,1.97,N#Cc1ccccc1-c1ccc(C(=O)NC[C@H]2CCCNC2)c(NCCc2cccc(F)c2)n1 [N-[((3S)(3-piperidyl))methyl](6-(2-cyanophenyl)-2-{[2-(3-fluorophenyl)ethyl]amino}(3-pyridyl))carboxamide]
6,1.05,C[C@@H](CN)CNC(=O)c1cc(F)c(-c2cnn(C)c2)nc1NCCc1cccc(F)c1 [N-((2S)-3-amino-2-methylpropyl)(5-fluoro-2-{[2-(3-fluorophenyl)ethyl]amino}-6-(1-methylpyrazol-4-yl)(3-pyridyl))carboxamide]
7,0.627,N#Cc1ccccc1-c1ccc(C(=O)NCCCC(=O)O)c(NCCc2cccc(F)c2)n1 [4-[(6-(2-cyanophenyl)-2-{[2-(3-fluorophenyl)ethyl]amino}-3-pyridyl)carbonylamino]butanoic acid]
8,1.17,CC(C)C[C@H](CNC(=O)c1ccc(-c2ccccc2C#N)nc1NCCc1cccc(F)c1)NC(=O)CO [N-((1R)-1-{[(6-(2-cyanophenyl)-2-{[2-(3-fluorophenyl)ethyl]amino}(3-pyridyl))carbonylamino]methyl}-3-methylbutyl)-2-hydroxyacetamide]
9,2.53,Cn1cc(-c2ccc(C(=O)NCc3cccnc3)c(NCCc3ccccn3)n2)cn1 [{6-(1-methylpyrazol-4-yl)-2-[(2-(2-pyridyl)ethyl)amino](3-pyridyl)}-N-(3-pyridylmethyl)carboxamide]
10,0.989,COC(=O)c1ccc(-c2ccc(C(=O)NCc3cccnc3)c(NCCc3ccccn3)n2)cc1 [methyl 4-{6-[(2-(2-pyridyl)ethyl)amino]-5-[N-(3-pyridylmethyl)carbamoyl]-2-pyridyl}benzoate]
11,25.2,CC(=O)N1CC[C@@H](CNC(=O)c2ccc(-c3ccccc3)nc2NCCc2ccccn2)C1 [N-[((3S)-1-acetylpyrrolidin-3-yl)methyl]{6-phenyl-2-[(2-(2-pyridyl)ethyl)amino](3-pyridyl)}carboxamide]
12,0.122,NCCNc1ncccc1CNC(=O)c1ccc(-c2cn[nH]c2)nc1NCCc1cccc(F)c1 [N-({2-[(2-aminoethyl)amino](3-pyridyl)}methyl)(2-{[2-(3-fluorophenyl)ethyl]amino}-6-pyrazol-4-yl(3-pyridyl))carboxamide]
13,9.67,N#Cc1ccccc1-c1ccc(C(=O)NCC(=O)NCCC(=O)O)c(NCCc2cccc(F)c2)n1 [3-{2-[(6-(2-cyanophenyl)-2-{[2-(3-fluorophenyl)ethyl]amino}-3-pyridyl)carbonylamino]acetylamino}propanoic acid]
14,4.52,N#Cc1ccccc1-c1ccc(C(=O)NC[C@@H]2CN(CCCN)CC(=O)N2)c(NCCc2cccc(F)c2)n1 [N-{[(2R)-4-(3-aminopropyl)-6-oxopiperazin-2-yl]methyl}(6-(2-cyanophenyl)-2-{[2-(3-fluorophenyl)ethyl]amino}(3-pyridyl))carboxamide]
15,2.63,CC(=O)N[C@@H](CNC(=O)c1ccc(-c2ccccc2C#N)nc1NCCc1cccc(F)c1)C(N)=O [N-{(1S)-1-carbamoyl-2-[(6-(2-cyanophenyl)-2-{[2-(3-fluorophenyl)ethyl]amino}(3-pyridyl))carbonylamino]ethyl}acetamide]
16,0.131,C[C@H](CNC(=O)c1cc(F)c(-c2cnn(C)c2)nc1NCCc1cccc(F)c1)NC(=O)[C@H](C)N
17,1.85,O=C(NCc1cccnc1)c1ccc(-c2ccccc2)nc1NCCC1CCCCC1 [{2-[(2-cyclohexylethyl)amino]-6-phenyl(3-pyridyl)}-N-(3-pyridylmethyl)carboxamide]

row,Compound,IC50 [µM]
1,Cn1cc(-c2nc(NCCc3cccc(F)c3)c(C(=O)NC[C@H](CO)NC(=O)OC(C)(C)C)cc2F)cn1 [N-((1R)-1-{[(5-fluoro-2-{[2-(3-fluorophenyl)ethyl]amino}-6-(1-methylpyrazol-4-yl)(3-pyridyl))carbonylamino]methyl}-2-hydroxyethyl)(tert-butoxy)carboxamide],25.9
